# Measured values reported in PubChem BioAssay (NCI).
#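 Step 1: Grow cells in 96-well plates. Step 2: Expose to compound for 48 hours at 5 concentrations. Step 3: Interpolate endpoints linearly; if unreached, use highest concentration. GI50 marks 50% less growth. TGI: total growth inhibition.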
# Experiments:
# Experiment in all cases: NCI-60 cell line screen, 48 h
# A498 renal = test system: A498 renal
# CCRF-CEM leukemia = test system: CCRF-CEM leukemia
# SF-268 CNS = test system: SF-268 CNS
# A549 NSCLC = test system: A549 NSCLC
# HL-60(TB) leukemia = test system: HL-60(TB) leukemia
# RPMI-8226 leukemia = test system: RPMI-8226 leukemia
# OVCAR-5 ovarian = test system: OVCAR-5 ovarian
# HCT-116 colon = test system: HCT-116 colon
# HOP-62 NSCLC = test system: HOP-62 NSCLC
# NCI-H460 lung = test system: NCI-H460 lung
SMILES,GI50 (A498 renal),TGI (A498 renal),GI50 (CCRF-CEM leukemia),TGI (CCRF-CEM leukemia),GI50 (SF-268 CNS),TGI (SF-268 CNS),GI50 (A549 NSCLC),TGI (A549 NSCLC),GI50 (HL-60(TB) leukemia),TGI (HL-60(TB) leukemia),GI50 (RPMI-8226 leukemia),TGI (RPMI-8226 leukemia),GI50 (OVCAR-5 ovarian),TGI (OVCAR-5 ovarian),TGI (HCT-116 colon),TGI (HOP-62 NSCLC),TGI (NCI-H460 lung)
COc1ccc2c(OCc3nnc4ccc(-c5ccccc5)nn34)ccnc2c1,> 100 µM,> 100 µM,> 58.1 µM,> 100 µM,> 100 µM,> 100 µM,> 100 µM,> 100 µM,> 100 µM,> 100 µM,> 100 µM,> 100 µM,> 100 µM,> 100 µM,,,
CN(C)/N=C1\CC(c2ccccc2)C(C#N)(C#N)C1(C#N)C#N (stereo not given),,33.8 µM,,> 100 µM,,35.6 µM,,> 100 µM,,> 100 µM,,47.2 µM,,59.1 µM,39.8 µM,59 µM,
C=CCOCn1cc(C)c(=O)[nH]c1=O,,> 100 µM,,> 100 µM,,> 100 µM,,> 100 µM,,> 100 µM,,> 100 µM,,,> 100 µM,> 100 µM,> 100 µM
COc1ccc(/C=C/C2=NN(c3cccc(S(=O)(=O)O)c3)C3(C2)SCC(=O)N3c2nc3ccccc3s2)cc1 (stereo not given),,> 100 µM,,77.5 µM,,> 100 µM,,> 100 µM,,> 100 µM,,84.5 µM,,> 100 µM,> 100 µM,,> 100 µM
C[C@H](C/C=C/C(C)(C)O)[C@H]1CC[C@@]2(C)[C@@H]3CC[C@H]4C(C)(C)[C@@H](O)CC[C@@]45C[C@@]35CC[C@]12C,,40.8 µM,,,,19.6 µM,,31 µM,,,,52.8 µM,,38.8 µM,37.1 µM,33.6 µM,54.2 µM
CC(=O)N1CCn2c1nc1cc(Cl)ccc12,,> 100 µM,,> 100 µM,,> 100 µM,,> 100 µM,,> 100 µM,,,,> 100 µM,> 100 µM,40 µM,> 100 µM
C[Si](C)(c1ccccc1)[C@H]1CCCC=C1CCNC1c2ccccc2CCc2ccccc21,,> 100 µM,,> 100 µM,,> 100 µM,,> 100 µM,,,,> 100 µM,,> 100 µM,> 100 µM,> 100 µM,> 100 µM
COc1ccc(-n2sc3ncccc3c2=O)cc1,,,,> 100 µM,,58.3 µM,,> 100 µM,,41.5 µM,,> 100 µM,,64.2 µM,32.6 µM,56.7 µM,> 100 µM
CC(C)(C)N(Cc1ccc2c(c1)OCO2)C(=O)/C=C\Sc1ccccc1,,> 100 µM,,> 100 µM,,,,> 100 µM,,> 100 µM,,> 100 µM,,> 100 µM,> 100 µM,> 100 µM,
CSC1NC(c2ccc(Cl)cc2)=C(C#N)C(=O)N1C1OCC(OC(C)=O)C(OC(C)=O)C1OC(C)=O (stereo not given),,> 100 µM,,,,> 100 µM,,,,,,> 100 µM,,> 100 µM,,> 100 µM,> 100 µM
Cc1cc(=O)[nH]c(NN2C(Cl)C(=O)C2c2cccc(Cl)c2)n1 (stereo not given),,,,41.7 µM,,98.1 µM,,> 100 µM,,40.4 µM,,34.8 µM,,> 100 µM,,> 100 µM,43.2 µM
COC(OC)[C@@H]1OC[C@@H](O)[C@@H]1n1cnc2c(N)ncnc21,,> 100 µM,,> 100 µM,,> 100 µM,,,,,,> 100 µM,,> 100 µM,> 100 µM,> 100 µM,> 100 µM
CCc1ccccc1NNc1cc(=O)[nH]c(=O)[nH]1,,45.8 µM,,82.8 µM,,,,57.3 µM,,> 100 µM,,> 100 µM,,37.3 µM,31.1 µM,35.1 µM,52.6 µM
CC(=O)NC(CC(C)C)C(=O)NC(Cc1ccccc1)C(=S)N1CCCC1 (stereo not given),,> 100 µM,,> 100 µM,,> 100 µM,,> 100 µM,,> 100 µM,,> 100 µM,,> 100 µM,,> 100 µM,> 100 µM
CC(C)(C)OC(=O)NCCCCC(NC(=O)c1ccccc1)C(N)=O (stereo not given),,> 100 µM,,> 100 µM,,> 100 µM,,> 100 µM,,,,> 100 µM,,> 100 µM,> 100 µM,> 100 µM,> 100 µM
Fc1cccc(F)c1C1SCc2nc3ccc(Cl)cc3n21 (stereo not given),,,,> 100 µM,,> 100 µM,,> 100 µM,,> 100 µM,,> 100 µM,,> 100 µM,> 100 µM,> 100 µM,> 100 µM
COc1ccc2oc(=O)c(-c3csc(C)n3)cc2c1,,,,> 100 µM,,50.3 µM,,> 100 µM,,> 100 µM,,> 100 µM,,> 100 µM,> 100 µM,84 µM,> 100 µM
O=P(O)(O)C1(P(=O)(O)O)CC1,,> 100 µM,,> 100 µM,,> 100 µM,,> 100 µM,,,,> 100 µM,,> 100 µM,> 100 µM,> 100 µM,> 100 µM
Clc1ccc(OCc2nn3c(CCc4nnc5sc(COc6ccc(Cl)cc6)nn45)nnc3s2)cc1,,42.8 µM,,> 100 µM,,> 100 µM,,,,72 µM,,> 100 µM,,> 100 µM,85.4 µM,> 100 µM,51.4 µM
COc1ccc(C(OCC2OC(n3ccc(NC(=O)c4ccccc4)nc3=O)CC2OP2(=S)SCCS2)(c2ccccc2)c2ccc(OC)cc2)cc1 (stereo not given),,,,,,44.1 µM,,> 100 µM,,,,> 100 µM,,94.6 µM,> 100 µM,43.9 µM,> 100 µM
CCOC(=O)C1=COC(C)(CCc2ccccc2)CC1=O (stereo not given),,> 100 µM,,,,> 100 µM,,> 100 µM,,,,> 100 µM,,> 100 µM,> 100 µM,> 100 µM,> 100 µM
C[N+]1(CCN[N+]2(C)CCCCC2)CCc2ccccc2C1 (stereo not given),,> 100 µM,,> 100 µM,,> 100 µM,,> 100 µM,,,,> 100 µM,,> 100 µM,> 100 µM,> 100 µM,> 100 µM
NNC(=O)c1cc(=O)[nH][nH]1,,,,> 100 µM,,> 100 µM,,> 100 µM,,,,> 100 µM,,> 100 µM,> 100 µM,,> 100 µM
